The target of assay [1] is T1, adenosine A1 receptor (Cavia porcellus, UniProt P47745).
T1 construct: from tissue; host or cells: isolated guinea pig left atria
T1 sequence (P47745 1-326): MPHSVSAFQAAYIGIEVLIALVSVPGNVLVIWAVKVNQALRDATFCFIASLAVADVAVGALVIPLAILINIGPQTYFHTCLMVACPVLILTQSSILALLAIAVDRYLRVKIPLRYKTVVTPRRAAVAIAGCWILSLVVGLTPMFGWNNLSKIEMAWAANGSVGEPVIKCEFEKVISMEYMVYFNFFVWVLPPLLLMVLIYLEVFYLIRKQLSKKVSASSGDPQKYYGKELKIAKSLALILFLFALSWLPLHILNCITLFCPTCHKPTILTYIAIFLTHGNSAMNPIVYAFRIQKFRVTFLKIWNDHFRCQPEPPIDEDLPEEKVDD
Description: A1 in vitro functional test: negative inotropic response, left atria, antagonism of NECA. It is filed as cell-based, guinea pig. The conditions noted are these: for Selectivity Ratio (A2 KB /A1 KB): functional; for Kb: guinea pig left atria, electrically evoked twitch, NECA agonist, 31° C, Schild plot, read-out: A1 KB (antagonist dissociation constant). As for the experimental part: 2. Adenosine--A1 /A2 In Vitro Functional Tests
(A1 Assay: Negative inotropic response)-Guinea pig left atria were placed in organ baths filled with Krebs Henseleit solution gassed with 95% O2 and 5% CO2 and maintained at a temperature of 31° C. An initial resting tension of 1 gm. was placed on each tissue, which was allowed to equilibrate. Atria were stimulated electrically to produce twitch responses. A dose-response curve for the inhibition of the electrically-evoked twitch response was obtained by cumulative addition of the adenosine agonist […]. After the washout of the tissue, a fixed concentration of test compound was added and the tissue allowed to equilibrate for 1 hr. before cumulative additions of the adenosine agonist 5'-N-ethylcarboxamidoadenosine (NECA) to generate a new dose response curve. This procedure was repeated with different fixed concentrations of test compounds to generate a family of dose response curves. Schild plots were constructed from the resultant concentration-effect curves, and KB (antagonist dissociation constant) values were obtained. The results (see Table VII) are expressed as KB values (concentration of test compound such that one-half of the tissue adenosine receptor population is occupied by the test compound).

Assay [2] addresses T2, adenosine A1 receptor (Bos taurus, UniProt P28190).
T2 construct: were homogenized with a Brinkman polytron and the membranes were collected by centrifugation; from tissue; host or cells: bovine caudate membranes
T2 sequence (P28190 1-326): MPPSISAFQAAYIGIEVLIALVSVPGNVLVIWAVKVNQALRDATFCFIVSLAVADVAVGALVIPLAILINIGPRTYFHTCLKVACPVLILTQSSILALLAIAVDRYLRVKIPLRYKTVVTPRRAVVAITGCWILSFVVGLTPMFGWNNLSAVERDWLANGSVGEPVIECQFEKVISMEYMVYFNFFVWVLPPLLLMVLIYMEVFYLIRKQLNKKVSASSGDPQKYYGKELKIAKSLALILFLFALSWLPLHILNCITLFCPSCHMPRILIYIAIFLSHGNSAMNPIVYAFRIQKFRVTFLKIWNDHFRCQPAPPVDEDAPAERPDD
The experiment in a line: Receptor affinity (radioligand binding), A1, [3H]CHA. Details: species or system bovine. The conditions noted are these: for Ki: [3H]CHA, room temperature, 2 hours, tissues listed: bovine caudate, guinea pig cortex, guinea pig striatum (only Example 13 marked guinea pig); for Selectivity Ratio (A2 Ki /A1 Ki): radioligand binding. The method, then:
(§1) 1. Receptor Affinity Experiments (Radioligand Binding)
(§2) Tissues (bovine caudate, guinea pig cortex, guinea pig striatum) were homogenized with a Brinkman polytron and the membranes were collected by centrifugation at 40,000×g at 4° C. for 10 min. The membranes were washed by resuspension and centrifugation, resuspended, and incubated in the presence of 1 U/ml adenosine deaminase for 15-30 min. at 37° C. The membranes were diluted, centrifuged once, and resuspended to a final concentration of 0.5-2 mg protein/ml. Adenosine deaminase (0.1 U/ml) was included in the final resuspension. Assays were initiated by addition of membranes. The compounds of the present invention were subjected to the following experimental conditions: A1 determinations/incubated with [^3 H]CHA at room temperature for 2 hours, A2 determinations/incubated with [^3 H]NECA at room temperature for 1 hour. Assays were terminated by filtration, and the filters were counted in scintillation counters.

Assay [3] addresses adenosine A2 receptor. Description: Receptor affinity (radioligand binding), A2, [3H]NECA. The conditions noted are these: room temperature, 1 hour. Further details: species or system bovine / guinea pig. The method, then: as §1, §2

Some results are limits rather than exact numbers.

For orientation: Kb means the affinity of an antagonist, worked out from how it opposes an agonist. One may read the Ki as the dissociation constant of the complex between target and ligand, obtained from inhibition or displacement. High values mean weaker binding, low ones tighter binding.

In the case of `CC(C)N(C)c1nc2c(N[C@H]3C[C@@H]4C[C@H]3C[C@@H]4O)ncnc2n1C` (relative stereo) [Example 16, (±)-N^6-[endo-2'-(endo-5'-hydroxy)norbornyl]-8-isopropylmethylamino-9-methyladenine], in assay [1], the “Selectivity Ratio (A2 KB /A1 KB)” value was 4450 and the Kb is 4 nM. Moreover, in assay [2], the Ki was determined as 0.0891 nM and the “Selectivity Ratio (A2 Ki /A1 Ki)” value is recorded as 2,626. Also, in assay [3], the Ki was 234 nM.
With `Cn1c(Br)nc2c(N[C@H]3C[C@@H]4C[C@H]3C[C@@H]4O)ncnc21` (relative stereo) [Example 17, (±)-N^6-[endo-2'-(endo-5'-hydroxy)norbornyl]-8-bromo-9-methyladenine], in assay [1], the “Selectivity Ratio (A2 KB /A1 KB)” value came out at 65 and the Kb came out at 30 nM. Also, in assay [2], the Ki came out at 1.17 nM and the “Selectivity Ratio (A2 Ki /A1 Ki)” value is reported as 59. This molecule gave an inhibition constant Ki in assay [3] of 69.2 nM.
For the molecule `CN(C)c1nc2c(N[C@H]3C[C@@H]4C[C@H]3C[C@@H]4O)ncnc2n1C` (relative stereo) [Example 18, (±)-N^6-[endo-2'-(endo-5'-hydroxy)norbornyl]-8-dimethylamino-9-methyladenine], the Kb in assay [1] is 72 nM. Also, in assay [2], the Ki amounted to 2.75 nM and the “Selectivity Ratio (A2 Ki /A1 Ki)” value stood at 100. The affinity in assay [3] corresponds to a Ki of 275 nM.
The matching figures for `Cn1c(Br)nc2c(N[C@H]3C[C@H]4CC(=O)[C@@H]3C4)ncnc21` (relative stereo) [Example 19]: 115 nM, 3.47 nM, 100 and 347 nM.
The like results for `Cn1c(N2CCCCC2)nc2c(N[C@H]3C[C@H]4CC[C@@H]3C4)ncnc21` (relative stereo) [Example 20, (±)-N^6-(endo-2'-norbornyl)-8-piperidinyl-9-methyladenine] were, in that order, 240 nM, 191 nM, above 52 and above 10000 nM.
For the molecule `Cn1cnc2c(N[C@H]3C[C@@H]4C[C@H]3C[C@@H]4O)ncnc21` (relative stereo) [Example 21, (±)-N^6-[endo-2'-(endo-5'-hydroxy)-norbornyl]-9-methyladenine], in assay [1], the “Selectivity Ratio (A2 KB /A1 KB)” value is recorded as 324 and the Kb came to 309 nM. Besides, in assay [2], affinity was put at a Ki of 19.1 nM and the “Selectivity Ratio (A2 Ki /A1 Ki)” value turned out to be 165. In addition, the Ki in assay [3] was determined as 3160 nM.
With `Cn1cnc2c(N[C@H]3C[C@@H]4C[C@H]3C[C@H]4O)ncnc21` (relative stereo) [Example 22], the Kb in assay [1] is 2950 nM. Also, the Ki in assay [2] worked out at 97.7 nM; in assay [3], 31600 nM. The “Selectivity Ratio (A2 Ki /A1 Ki)” value in assay [2] is listed as 323.
For the molecule `Cn1cnc2c(N[C@H]3C[C@@H]4C[C@H]3[C@@H](O)C4)ncnc21` (relative stereo) [Example 23], the Kb in assay [1] was 3800 nM. Moreover, in assay [2], the Ki amounted to 85.1 nM and the “Selectivity Ratio (A2 Ki /A1 Ki)” value is 371. Besides, in assay [3], affinity was put at a Ki of 31600 nM.
In the case of `Cn1cnc2c(N[C@H]3C[C@@H]4C[C@H]3[C@H](O)C4)ncnc21` (relative stereo) [Example 24], in assay [1], the Kb came to 4680 nM. Further, the Ki came to 141 nM in assay [2] and 21400 nM in assay [3]. Moreover, the “Selectivity Ratio (A2 Ki /A1 Ki)” value in assay [2] is 152.
The matching figures for `Cn1cnc2c(N[C@H]3C[C@H]4C[C@@H]3C[C@@H]4O)ncnc21` (relative stereo) [Example 30, (±)-N^6-[exo-2',(exo-5'-hydroxy)-norbornyl]-9-methyladenine]: 1310 nM, 363 nM, 42700 nM and 1,176.
The like results for `Cn1cnc2c(N[C@H]3C[C@H]4C[C@@H]3C[C@H]4O)ncnc21` (relative stereo) [Example 31] were, in that order, 4070 nM, 105 nM, 14400 nM and 137.
The like results for `Cn1cnc2c(N[C@H]3C[C@H]4C[C@@H]3[C@@H](O)C4)ncnc21` (relative stereo) [Example 32] were, in that order, 6030 nM, 51.3 nM, above 10000 nM and above 195.
Take `Cn1cnc2c(N[C@@H]3C[C@H]4C[C@@H]3c3ccc(O)cc34)ncnc21` (relative stereo) [Example 36, (±)-N^6-[endo-2'-(5',6'-(6"-hydroxy)benzo)norbornyl]-9-methyladenine]: in assay [1], the Kb worked out at 275 nM. For the same molecule, in assay [2], affinity was put at a Ki of 2 nM and the “Selectivity Ratio (A2 Ki /A1 Ki)” value is on record as 316. Moreover, in assay [3], the Ki is 631 nM.
The like results for `Cn1cnc2c(N[C@H]3C[C@H]4C[C@@H]3c3ccccc34)ncnc21` (relative stereo) [Example 38] were, in that order, 1580 nM, 17.8 nM, 331 and 5890 nM.
The matching figures for `Cn1cnc2c(N[C@@H]3C[C@H]4C[C@@H]3c3ccccc34)ncnc21` (relative stereo) [Example 39]: 28800 nM, 468 nM, 33 and 15500 nM.
The matching figures for `COc1ccc2c(c1)[C@H]1C[C@H](Nc3ncnc4c3ncn4C)[C@@H]2C1` (relative stereo) [Example 40]: 1120 nM, 8.91 nM, 631 and 5620 nM.
As for `COc1ccc2c(c1)[C@@H]1C[C@H]2[C@H](Nc2ncnc3c2ncn3C)C1` (relative stereo) [Example 41], the Kb in assay [1] was 64600 nM. For the same molecule, in assay [2], the Ki amounted to 209 nM and the “Selectivity Ratio (A2 Ki /A1 Ki)” value is given as above 48. In assay [3], this molecule gave a Ki above 10000 nM.
As for `Cn1cnc2c(N[C@@H]3C[C@@H]4CC[C@H]3C4)ncnc21` (relative stereo) [Example 49, N^6-(endo-2-norbornyl)-9-methyladenine, reference compound], in assay [1], the “Selectivity Ratio (A2 KB /A1 KB)” value is on record as 36 and the Kb came to 550 nM. Besides, in assay [2], the affinity, expressed as Ki, was 10 nM and the “Selectivity Ratio (A2 Ki /A1 Ki)” value stood at 617. The molecule further showed a Ki in assay [3] of 6170 nM.
Regarding `CN(C)c1nc2c(NC3CCCC3)ncnc2n1C` [Example 8, N^6-cyclopentyl-8-dimethylamino-9-methyladenine], the Kb in assay [1] turned out to be 501 nM. The results for the Ki in assay [2] and in assay [3] were 6.17 nM and 1350 nM, respectively. In addition, the “Selectivity Ratio (A2 Ki /A1 Ki)” value in assay [2] was determined as 219.
The like results for `CSc1nc2c(NC3CCCC3)ncnc2n1C` [Example 12, N^6-cyclopentyl-8-methylthio-9-methyladenine] were, in that order, 71 nM, 2.5 nM, 363 nM and 145.
As for `Cn1cnc2c(NC3CCCCC3)ncnc21` [Example 47, N^6-cyclohexyl-9-methyladenine, reference compound], in assay [1], the “Selectivity Ratio (A2 KB /A1 KB)” value is on record as above 152 and the Kb is 2080 nM. In addition, in assay [2], the Ki was 45.7 nM and the “Selectivity Ratio (A2 Ki /A1 Ki)” value stood at 241. The same molecule gave a Ki in assay [3] of 11000 nM.
The matching figures for `Cn1cnc2c(NC3CCCC3)ncnc21` [Example 48, N^6-cyclopentyl-9-methyladenine, reference compound]: above 395, 759 nM, 10 nM, 501 and 5010 nM.

The values are drawn from patent US5670501A, “N-substituted 9-alkyladenines” (Discovery Therapeutics, Inc., priority 1994, dated 1997).
